In PubChem BioAssay (NCI):
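96-well plates; 48 h exposure; 5 concentrations. Endpoints by linear interpolation between flanking doses. Not reached: highest tested concentration assigned. TGI: total growth inhibition.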

Columns and labels:
Assay in all cases: inhibition of tumour cell growth, NCI panel, 48 h
786-0 renal = system: 786-0 renal
A498 renal = system: A498 renal
A549 NSCLC = system: A549 NSCLC
ACHN renal = system: ACHN renal
BT-549 breast = system: BT-549 breast
CAKI-1 renal = system: CAKI-1 renal
COLO 205 colon = system: COLO 205 colon
DU-145 prostate = system: DU-145 prostate
EKVX NSCLC = system: EKVX NSCLC
HCC-2998 colon = system: HCC-2998 colon
HCT-116 colon = system: HCT-116 colon
HCT-15 colon = system: HCT-15 colon
HL-60(TB) leukemia = system: HL-60(TB) leukemia
HOP-62 NSCLC = system: HOP-62 NSCLC
HS 578T breast = system: HS 578T breast
HT29 colon = system: HT29 colon
K-562 leukemia = system: K-562 leukemia
KM12 colon = system: KM12 colon
LOX IMVI melanoma = system: LOX IMVI melanoma
M14 melanoma = system: M14 melanoma
MALME-3M melanoma = system: MALME-3M melanoma
MCF7 breast = system: MCF7 breast
MDA-MB-231 breast = system: MDA-MB-231 breast
MDA-MB-435 = system: MDA-MB-435
MDA-N = system: MDA-N
NCI-H226 lung = system: NCI-H226 lung
NCI-H23 lung = system: NCI-H23 lung
NCI-H460 lung = system: NCI-H460 lung
NCI-H522 lung = system: NCI-H522 lung
NCI/ADR-RES ovarian = system: NCI/ADR-RES ovarian
OVCAR-3 ovarian = system: OVCAR-3 ovarian
OVCAR-4 ovarian = system: OVCAR-4 ovarian
OVCAR-5 ovarian = system: OVCAR-5 ovarian
PC-3 prostate = system: PC-3 prostate
RXF 393 renal = system: RXF 393 renal
SF-268 CNS = system: SF-268 CNS
SF-295 CNS = system: SF-295 CNS
SF-539 CNS = system: SF-539 CNS
SK-MEL-2 melanoma = system: SK-MEL-2 melanoma
SK-MEL-28 melanoma = system: SK-MEL-28 melanoma
SK-MEL-5 melanoma = system: SK-MEL-5 melanoma
SK-OV-3 ovarian = system: SK-OV-3 ovarian
SN12C renal = system: SN12C renal
SNB-19 CNS = system: SNB-19 CNS
SNB-75 CNS = system: SNB-75 CNS
SW-620 colon = system: SW-620 colon
T-47D breast = system: T-47D breast
TK-10 renal = system: TK-10 renal
U251 CNS = system: U251 CNS
UACC-257 melanoma = system: UACC-257 melanoma
UACC-62 melanoma = system: UACC-62 melanoma
UO-31 renal = system: UO-31 renal
CCRF-CEM leukemia = system: CCRF-CEM leukemia
IGROV1 ovarian = system: IGROV1 ovarian
MOLT-4 leukemia = system: MOLT-4 leukemia
OVCAR-8 ovarian = system: OVCAR-8 ovarian
RPMI-8226 leukemia = system: RPMI-8226 leukemia
SR leukemia = system: SR leukemia
HOP-92 NSCLC = system: HOP-92 NSCLC

C[n+]1c2ccccc2n2c3ccccc3c(NCc3ccco3)c(C#N)c21
TGI (786-0 renal): 12.8 µM
TGI (A498 renal): 20.4 µM
TGI (A549 NSCLC): > 100 µM
TGI (ACHN renal): 9.08 µM
TGI (BT-549 breast): > 100 µM
TGI (CAKI-1 renal): 7.36 µM
TGI (COLO 205 colon): 19.9 µM
TGI (DU-145 prostate): > 22.1 µM
TGI (EKVX NSCLC): 13.6 µM
TGI (HCC-2998 colon): 3.36 µM
TGI (HCT-116 colon): 14.7 µM
TGI (HCT-15 colon): 4.34 µM
TGI (HL-60(TB) leukemia): 8.69 µM
TGI (HOP-62 NSCLC): 11.4 µM
TGI (HS 578T breast): 10.8 µM
TGI (HT29 colon): > 100 µM
TGI (K-562 leukemia): > 21.1 µM
TGI (KM12 colon): 22 µM
TGI (LOX IMVI melanoma): 3.65 µM
TGI (M14 melanoma): 5.62 µM
TGI (MALME-3M melanoma): 7.59 µM
TGI (MCF7 breast): 11.9 µM
TGI (MDA-MB-231 breast): 16.6 µM
TGI (MDA-MB-435): 4.34 µM
TGI (MDA-N): 10.9 µM
TGI (NCI-H226 lung): 16 µM
TGI (NCI-H23 lung): 8.92 µM
TGI (NCI-H460 lung): 4.19 µM
TGI (NCI-H522 lung): 2.83 µM
TGI (NCI/ADR-RES ovarian): 9.55 µM
TGI (OVCAR-3 ovarian): > 49.6 µM
TGI (OVCAR-4 ovarian): 10.7 µM
TGI (OVCAR-5 ovarian): 12 µM
TGI (PC-3 prostate): 22.7 µM
TGI (RXF 393 renal): 6.21 µM
TGI (SF-268 CNS): 11.3 µM
TGI (SF-295 CNS): 16.6 µM
TGI (SF-539 CNS): 8.79 µM
TGI (SK-MEL-2 melanoma): 6.51 µM
TGI (SK-MEL-28 melanoma): 5.75 µM
TGI (SK-MEL-5 melanoma): 13.7 µM
TGI (SK-OV-3 ovarian): 39.8 µM
TGI (SN12C renal): 9.82 µM
TGI (SNB-19 CNS): 26.6 µM
TGI (SNB-75 CNS): 6.86 µM
TGI (SW-620 colon): 4.01 µM
TGI (T-47D breast): > 28.7 µM
TGI (TK-10 renal): 11.3 µM
TGI (U251 CNS): 13 µM
TGI (UACC-257 melanoma): 57.4 µM
TGI (UACC-62 melanoma): 11.7 µM
TGI (UO-31 renal): 7.63 µM

O=P(O)(O)c1ccc2c(c1)OCCOCCOCCOCCO2
TGI (786-0 renal): > 100 µM
TGI (A498 renal): > 100 µM
TGI (A549 NSCLC): > 100 µM
TGI (ACHN renal): > 100 µM
TGI (BT-549 breast): > 100 µM
TGI (CCRF-CEM leukemia): > 100 µM
TGI (COLO 205 colon): > 100 µM
TGI (DU-145 prostate): > 100 µM
TGI (EKVX NSCLC): > 100 µM
TGI (HCC-2998 colon): > 100 µM
TGI (HCT-116 colon): > 100 µM
TGI (HCT-15 colon): > 100 µM
TGI (HL-60(TB) leukemia): > 100 µM
TGI (HOP-62 NSCLC): > 100 µM
TGI (HS 578T breast): > 100 µM
TGI (HT29 colon): > 100 µM
TGI (IGROV1 ovarian): > 100 µM
TGI (K-562 leukemia): > 100 µM
TGI (KM12 colon): > 100 µM
TGI (LOX IMVI melanoma): > 100 µM
TGI (MALME-3M melanoma): > 100 µM
TGI (MCF7 breast): > 100 µM
TGI (MDA-MB-231 breast): > 100 µM
TGI (MDA-MB-435): > 100 µM
TGI (MDA-N): > 100 µM
TGI (MOLT-4 leukemia): > 100 µM
TGI (NCI-H226 lung): > 100 µM
TGI (NCI-H23 lung): > 100 µM
TGI (NCI-H460 lung): > 100 µM
TGI (NCI-H522 lung): > 100 µM
TGI (OVCAR-8 ovarian): > 100 µM
TGI (PC-3 prostate): > 100 µM
TGI (RPMI-8226 leukemia): > 100 µM
TGI (SF-268 CNS): > 100 µM
TGI (SF-295 CNS): > 100 µM
TGI (SF-539 CNS): > 100 µM
TGI (SK-MEL-28 melanoma): > 100 µM
TGI (SK-MEL-5 melanoma): > 100 µM
TGI (SK-OV-3 ovarian): > 100 µM
TGI (SN12C renal): > 100 µM
TGI (SNB-19 CNS): > 100 µM
TGI (SNB-75 CNS): > 100 µM
TGI (SR leukemia): > 100 µM
TGI (SW-620 colon): > 100 µM
TGI (T-47D breast): > 100 µM
TGI (TK-10 renal): > 100 µM
TGI (UACC-257 melanoma): > 100 µM
TGI (UACC-62 melanoma): > 100 µM
TGI (UO-31 renal): > 100 µM

CC(C)(C)n1[nH]c(=O)n(C(C)(C)C)c1=O
TGI (786-0 renal): > 100 µM
TGI (A498 renal): > 100 µM
TGI (A549 NSCLC): > 100 µM
TGI (ACHN renal): > 100 µM
TGI (BT-549 breast): > 100 µM
TGI (CAKI-1 renal): > 100 µM
TGI (COLO 205 colon): > 100 µM
TGI (DU-145 prostate): > 100 µM
TGI (HCC-2998 colon): > 100 µM
TGI (HCT-116 colon): > 100 µM
TGI (HCT-15 colon): > 100 µM
TGI (HL-60(TB) leukemia): > 100 µM
TGI (HOP-92 NSCLC): > 100 µM
TGI (HS 578T breast): > 100 µM
TGI (K-562 leukemia): > 100 µM
TGI (KM12 colon): > 100 µM
TGI (LOX IMVI melanoma): > 100 µM
TGI (M14 melanoma): > 100 µM
TGI (MCF7 breast): > 100 µM
TGI (MDA-MB-231 breast): > 100 µM
TGI (MDA-MB-435): > 100 µM
TGI (MDA-N): > 100 µM
TGI (MOLT-4 leukemia): > 100 µM
TGI (NCI-H23 lung): > 100 µM
TGI (NCI-H460 lung): > 100 µM
TGI (OVCAR-3 ovarian): > 100 µM
TGI (OVCAR-4 ovarian): > 100 µM
TGI (OVCAR-5 ovarian): > 100 µM
TGI (PC-3 prostate): > 100 µM
TGI (RPMI-8226 leukemia): > 100 µM
TGI (RXF 393 renal): > 100 µM
TGI (SF-268 CNS): > 100 µM
TGI (SF-295 CNS): > 100 µM
TGI (SF-539 CNS): > 100 µM
TGI (SK-MEL-2 melanoma): > 100 µM
TGI (SK-MEL-28 melanoma): > 100 µM
TGI (SK-MEL-5 melanoma): > 100 µM
TGI (SK-OV-3 ovarian): > 100 µM
TGI (SN12C renal): > 100 µM
TGI (SNB-19 CNS): > 100 µM
TGI (SNB-75 CNS): > 100 µM
TGI (SR leukemia): > 100 µM
TGI (SW-620 colon): > 100 µM
TGI (T-47D breast): > 100 µM
TGI (TK-10 renal): > 100 µM
TGI (U251 CNS): > 100 µM
TGI (UACC-257 melanoma): > 100 µM
TGI (UACC-62 melanoma): > 100 µM
TGI (UO-31 renal): > 100 µM

Cc1cn(CC2(CO)CCC2)c(=O)[nH]c1=O
TGI (786-0 renal): > 100 µM
TGI (A498 renal): > 100 µM
TGI (A549 NSCLC): > 100 µM
TGI (ACHN renal): > 100 µM
TGI (BT-549 breast): > 100 µM
TGI (CAKI-1 renal): > 100 µM
TGI (CCRF-CEM leukemia): > 100 µM
TGI (COLO 205 colon): > 100 µM
TGI (DU-145 prostate): > 100 µM
TGI (EKVX NSCLC): > 100 µM
TGI (HCC-2998 colon): > 100 µM
TGI (HCT-116 colon): > 100 µM
TGI (HCT-15 colon): > 100 µM
TGI (HL-60(TB) leukemia): > 100 µM
TGI (HOP-62 NSCLC): > 100 µM
TGI (HS 578T breast): > 100 µM
TGI (HT29 colon): > 100 µM
TGI (IGROV1 ovarian): > 100 µM
TGI (K-562 leukemia): > 100 µM
TGI (KM12 colon): > 100 µM
TGI (LOX IMVI melanoma): > 100 µM
TGI (MALME-3M melanoma): > 100 µM
TGI (MCF7 breast): > 100 µM
TGI (MDA-MB-231 breast): > 100 µM
TGI (MDA-MB-435): > 100 µM
TGI (MDA-N): > 100 µM
TGI (MOLT-4 leukemia): > 100 µM
TGI (NCI-H226 lung): > 100 µM
TGI (NCI-H23 lung): > 100 µM
TGI (NCI-H460 lung): > 100 µM
TGI (NCI-H522 lung): > 100 µM
TGI (NCI/ADR-RES ovarian): > 100 µM
TGI (OVCAR-3 ovarian): > 100 µM
TGI (OVCAR-4 ovarian): > 100 µM
TGI (OVCAR-5 ovarian): > 100 µM
TGI (OVCAR-8 ovarian): > 100 µM
TGI (PC-3 prostate): > 100 µM
TGI (RPMI-8226 leukemia): > 100 µM
TGI (RXF 393 renal): > 100 µM
TGI (SF-295 CNS): > 100 µM
TGI (SF-539 CNS): > 100 µM
TGI (SK-MEL-2 melanoma): > 100 µM
TGI (SK-MEL-28 melanoma): > 100 µM
TGI (SK-MEL-5 melanoma): > 100 µM
TGI (SK-OV-3 ovarian): > 100 µM
TGI (SN12C renal): > 100 µM
TGI (SNB-75 CNS): > 100 µM
TGI (SR leukemia): > 100 µM
TGI (SW-620 colon): > 100 µM
TGI (T-47D breast): > 100 µM
TGI (TK-10 renal): > 100 µM
TGI (U251 CNS): > 100 µM
TGI (UACC-257 melanoma): > 100 µM
TGI (UACC-62 melanoma): > 100 µM
TGI (UO-31 renal): > 100 µM
